Source: patent US20260216164A1, “INDOLE COMPOUND DECOMPOSING IKZF2, AND USE THEREOF” (KOREA RESEARCH INSTITUTE OF CHEMICAL TECHNOLOGY, priority 2023, published 2026)

Molecular target: Helios (IKZF2) (Homo sapiens, UniProt Q96SW2+Q9UKS7)
Assay: Screening of Helios protein degraders using Nano-Glo HiBiT cell line (HiBiT-IKZF2)
Type: cell-based
Conditions: for remaining activity at 1 µM: compound 1 μM, read-out: HiBiT-IKZF2 Residual amount of Helios (%) 1 μM; for remaining activity at 1 µM / remaining activity at 10 µM: 6 hours, HiBiT-Helios knock-in Jurkat cells; for remaining activity at 10 µM: compound 10 μM, read-out: HiBiT-IKZF2 Residual amount of Helios (%) 10 μM
Procedure: To observe intracellular degradation of Helios, the Nano-Glo HiBiT detection system (Promega) was employed. […] The cells expressing Helios fused with HiBiT were validated using the Nano-Glo HiBiT detection system (Promega) according to a predetermined protocol, isolated as single cells, and cultured in complete medium to establish a monoclonal cell line.
After 6 hours, the Nano-Glo HiBiT detection reagent was added to each well in an equal volume to the cell culture medium and incubated at room temperature for 10 minutes. Following incubation, the HiBiT luminescence signal was measured using a microplate reader (Perkin Elmer).

Helios (IKZF2), sequence (Q9UKS7 whole entry): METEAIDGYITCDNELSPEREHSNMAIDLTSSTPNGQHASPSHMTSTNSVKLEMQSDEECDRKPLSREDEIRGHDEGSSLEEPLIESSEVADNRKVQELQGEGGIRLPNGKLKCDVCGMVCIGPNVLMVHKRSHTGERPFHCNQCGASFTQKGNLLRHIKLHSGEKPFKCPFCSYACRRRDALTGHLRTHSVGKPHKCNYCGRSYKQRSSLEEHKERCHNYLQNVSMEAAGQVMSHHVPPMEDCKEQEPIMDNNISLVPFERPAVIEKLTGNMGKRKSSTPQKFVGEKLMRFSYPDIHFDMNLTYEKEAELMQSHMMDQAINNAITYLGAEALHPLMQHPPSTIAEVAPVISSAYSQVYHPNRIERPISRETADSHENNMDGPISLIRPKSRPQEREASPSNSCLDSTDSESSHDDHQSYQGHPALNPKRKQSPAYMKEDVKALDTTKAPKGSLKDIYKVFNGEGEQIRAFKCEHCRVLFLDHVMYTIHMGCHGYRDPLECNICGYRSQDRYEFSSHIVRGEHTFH
Helios (IKZF2), sequence (Q96SW2 whole entry): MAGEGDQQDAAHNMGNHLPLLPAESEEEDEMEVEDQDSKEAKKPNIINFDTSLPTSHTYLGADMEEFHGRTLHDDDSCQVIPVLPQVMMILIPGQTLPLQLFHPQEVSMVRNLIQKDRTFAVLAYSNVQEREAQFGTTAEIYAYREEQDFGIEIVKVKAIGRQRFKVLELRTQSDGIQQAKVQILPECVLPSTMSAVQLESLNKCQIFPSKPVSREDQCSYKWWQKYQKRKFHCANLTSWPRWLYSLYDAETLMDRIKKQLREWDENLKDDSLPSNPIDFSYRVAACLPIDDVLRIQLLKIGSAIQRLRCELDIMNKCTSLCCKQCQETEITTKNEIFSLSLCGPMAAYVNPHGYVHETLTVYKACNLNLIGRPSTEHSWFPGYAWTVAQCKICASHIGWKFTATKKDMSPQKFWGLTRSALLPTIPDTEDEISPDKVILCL
Helios (IKZF2), sequence (Q16531 whole entry partner): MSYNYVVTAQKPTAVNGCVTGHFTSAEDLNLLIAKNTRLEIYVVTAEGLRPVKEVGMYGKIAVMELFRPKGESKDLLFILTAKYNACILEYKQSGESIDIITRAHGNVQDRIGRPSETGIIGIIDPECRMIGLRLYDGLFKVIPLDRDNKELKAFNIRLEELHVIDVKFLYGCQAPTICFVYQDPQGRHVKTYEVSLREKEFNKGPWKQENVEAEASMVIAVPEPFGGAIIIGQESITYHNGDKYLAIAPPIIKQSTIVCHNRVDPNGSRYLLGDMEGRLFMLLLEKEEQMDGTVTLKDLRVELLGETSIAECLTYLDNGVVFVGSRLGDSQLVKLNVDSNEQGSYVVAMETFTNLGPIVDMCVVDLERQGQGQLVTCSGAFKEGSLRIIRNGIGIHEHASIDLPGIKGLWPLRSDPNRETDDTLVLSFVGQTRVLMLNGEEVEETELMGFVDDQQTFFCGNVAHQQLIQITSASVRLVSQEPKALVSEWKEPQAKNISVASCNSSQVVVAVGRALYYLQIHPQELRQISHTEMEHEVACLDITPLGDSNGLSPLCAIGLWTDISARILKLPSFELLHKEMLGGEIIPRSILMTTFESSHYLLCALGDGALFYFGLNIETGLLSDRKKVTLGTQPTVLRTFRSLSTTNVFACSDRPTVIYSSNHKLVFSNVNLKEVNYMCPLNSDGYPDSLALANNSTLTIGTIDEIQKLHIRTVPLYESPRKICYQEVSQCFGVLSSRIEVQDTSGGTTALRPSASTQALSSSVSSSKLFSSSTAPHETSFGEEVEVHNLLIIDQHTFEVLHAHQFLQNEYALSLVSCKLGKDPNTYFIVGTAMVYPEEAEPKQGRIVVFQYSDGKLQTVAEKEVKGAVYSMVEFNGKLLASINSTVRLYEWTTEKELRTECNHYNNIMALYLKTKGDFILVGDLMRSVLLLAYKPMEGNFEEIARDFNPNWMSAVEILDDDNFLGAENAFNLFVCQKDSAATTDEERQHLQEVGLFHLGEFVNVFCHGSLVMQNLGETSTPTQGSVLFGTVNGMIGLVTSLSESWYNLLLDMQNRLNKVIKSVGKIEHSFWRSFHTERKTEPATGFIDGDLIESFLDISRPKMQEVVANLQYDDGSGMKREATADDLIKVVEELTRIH

Structure (SMILES)	remaining activity at 1 µM [%]	remaining activity at 10 µM [%]	IKZF2 degradation activity (in words, comment on Table 1) (as shown in Table 1)
CCc1c(C(=O)N2CCC(c3ccc4c(c3)CN(C3CCC(=O)NC3=O)C4=O)CC2)[nH]c2ccccc12 (stereo not drawn) [Compound 29, 3-(5-(1-(3-ethyl-1H-indole-2-carbonyl)piperidin-4-yl)-1-oxoinsoindolin-2-yl)piperidine-2,6-dione]	73.6	72.4	–
COc1c(C(=O)N2CCC(c3ccc4c(c3)CN(C3CCC(=O)NC3=O)C4=O)CC2)[nH]c2ccccc12 (stereo not drawn) [Compound 30, 3-(5-(1-(3-methoxy-1H-indole-2-carbonyl)piperidin-4-yl)-1-oxoinsoindolin-2-yl)piperidine-2,6-dione]	86.7	78.7	–
Cc1c(C(=O)N2CCC(c3ccc4c(c3)CN(C3CCC(=O)NC3=O)C4=O)CC2)[nH]c2ncccc12 (stereo not drawn) [Compound 31, 3-(5-(1-(3-methyl-1H-picolo[2,3-b]pyridine-2-carbonyl)piperidin-4-yl)-1-oxoinsoindolin-2-yl)piperidine-2,6-dione]	75	94.3	–
Nc1ccc2cc(C(=O)N3CCC(c4ccc5c(c4)CN(C4CCC(=O)NC4=O)C5=O)CC3)[nH]c2c1 (stereo not drawn) [Compound 32, 3-(5-(1-(6-amino-1H-indole-2-carbonyl)piperidin-4-yl)-1-oxoinsoindolin-2-yl)piperidine-2,6-dione]	62.1	57.3	–
Cc1c(C(=O)N2CCC(c3ccc4c(c3)CN(C3CCC(=O)NC3=O)C4=O)CC2)[nH]c2ccc(Br)cc12 (stereo not drawn) [Compound 33, 3-(5-(1-(5-bromo-3-methyl-1H-indole-2-carbonyl)piperidin-4-yl)-1-oxoinsoindolin-2-yl)piperidine-2,6-dione]	71.3	64.4	–
O=C1CCC(N2Cc3cc(C4CCN(C(=O)c5[nH]c6ccccc6c5CN5CCOCC5)CC4)ccc3C2=O)C(=O)N1 (stereo not drawn) [Compound 34, 3-(5-(1-(3-(morpholinomethyl)-1H-indole-2-carbonyl)piperidin-4-yl)-1-oxoinsoindolin-2-yl)piperidine-2,6-dione]	66.5	43.5	–
O=Cc1c(C(=O)N2CCC(c3ccc4c(c3)CN(C3CCC(=O)NC3=O)C4=O)CC2)[nH]c2ccccc12 (stereo not drawn) [Compound 35, 2-(4-(2-(2,6-dioxopiperidin-3-yl)-1-oxoindolin-5-yl)piperidine-1-carbonyl)-1H-indole-3-carbaldehyde]	76.6	52.3	–
O=C1CCC(N2Cc3cc(C4CCN(C(=O)c5[nH]c6ccccc6c5Br)CC4)ccc3C2=O)C(=O)N1 (stereo not drawn) [Compound 36, 3-(5-(1-(3-bromo-1H-indole-2-carbonyl)piperidin-4-yl)-1-oxoinsoindolin-2-yl)piperidine-2,6-dione]	50.9	40.6	–
O=C1CCC(N2Cc3cc(C4CCN(C(=O)c5[nH]c6ccccc6c5F)CC4)ccc3C2=O)C(=O)N1 (stereo not drawn) [Compound 37, 3-(5-(1-(3-fluoro-1H-indole-2-carbonyl)piperidin-4-yl)-1-oxoinsoindolin-2-yl)piperidine-2,6-dione]	99.6	77.5	–
Cc1c(C(=O)N2CCC(c3ccc4c(c3)CN(C3CCC(=O)NC3=O)C4=O)CC2)[nH]c2ccc(Cl)cc12 (stereo not drawn) [Compound 38, 3-(5-(1-(5-chloro-3-methyl-1H-indole-2-carbonyl)piperidin-4-yl)-1-oxoinsoindolin-2-yl)piperidine-2,6-dione]	80	65.1	–
COc1cc2cc(C(=O)N3CCC(c4ccc5c(c4)CN(C4CCC(=O)NC4=O)C5=O)CC3)[nH]c2cc1OC (stereo not drawn) [Compound 40, 3-(5-(1-(5,6-dimethoxy-1H-indole-2-carbonyl)piperidin-4-yl)-1-oxoinsoindolin-2-yl)piperidine-2,6-dione]	92.2	74.5	–
O=C1CCC(N2Cc3cc(C4CCN(C(=O)c5cc6ccc(C(F)(F)F)cc6[nH]5)CC4)ccc3C2=O)C(=O)N1 (stereo not drawn) [Compound 41, 3-(1-oxo-5-(1-(6-(trifluoromethyl)-1H-indole-2-carbonyl)piperidin-4-yl)isoindolin-2-yl)piperidine-2,6-dione]	41.7	38.5	–
COc1ccc2c(C)c(C(=O)N3CCC(c4ccc5c(c4)CN(C4CCC(=O)NC4=O)C5=O)CC3)[nH]c2c1 (stereo not drawn) [Compound 42, 3-(5-(1-(6-methoxy-3-methyl-1H-indole-2-carbonyl)piperidin-4-yl)-1-oxoinsoindolin-2-yl)piperidine-2,6-dione]	13.9	13	–
Cc1c(C(=O)N2CCC(C#Cc3ccc4c(c3)CN(C3CCC(=O)NC3=O)C4=O)CC2)[nH]c2cc(Cl)ccc12 (stereo not drawn) [Compound 43, 3-(5-((1-(6-chloro-3-methyl-1H-indole-2-carbonyl)piperidin-4-yl)ethynyl)-1-oxoinsoindolin-2-yl)piperidine-2,6-dione]	22.7	15.7	–
Cc1c(C(=O)N2CCC(=Cc3ccc4c(c3)CN(C3CCC(=O)NC3=O)C4=O)CC2)[nH]c2cc(Cl)ccc12 (stereo not drawn) [Compound 44, 3-(5-((1-(6-chloro-3-methyl-1H-indole-2-carbonyl)piperidin-4-ylidene)methyl)-1-oxoinsoindolin-2-yl)piperidine-2,6-dione]	69.7	61.1	–
O=C1CCC(N2Cc3cc(C4CCN(C(=O)c5cc6ncc(Cl)cc6[nH]5)CC4)ccc3C2=O)C(=O)N1 (stereo not drawn) [Compound 45, 3-(5-(1-(6-chloro-1H-picolo[3,2-b]pyridine-2-carbonyl)piperidin-4-yl)-1-oxoinsoindolin-2-yl)piperidine-2,6-dione]	70.3	58.2	–
O=C1CCC(N2Cc3cc(C4CCN(C(=O)c5cc6cnc(Cl)cc6[nH]5)CC4)ccc3C2=O)C(=O)N1 (stereo not drawn) [Compound 46, 3-(5-(1-(6-chloro-1H-picolo[3,2-c]pyridine-2-carbonyl)piperidin-4-yl)-1-oxoinsoindolin-2-yl)piperidine-2,6-dione]	58.1	47.4	–
N#Cc1c(C(=O)N2CCC(c3ccc4c(c3)CN(C3CCC(=O)NC3=O)C4=O)CC2)[nH]c2ccccc12 (stereo not drawn) [Compound 51, 2-(4-(2-(2,6-dioxopiperidin-3-yl)-1-oxoindolin-5-yl)piperidine-1-carbonyl)-1H-indole-3-carbonitrile]	–	76.6	–
Cc1c(C(=O)N2CCC(c3ccc4c(c3)CN(C3CCC(=O)NC3=O)C4=O)CC2)[nH]c2cc(F)ccc12 (stereo not drawn) [Compound 54, 3-(5-(1-(6-fluoro-3-methyl-1H-indole-2-carbonyl)piperidin-4-yl)-1-oxoinsoindolin-2-yl)piperidine-2,6-dione]	–	26.8	–
Cc1c(C(=O)N2CCC(c3ccc4c(c3)CN(C3CCC(=O)NC3=O)C4=O)CC2)[nH]c2cc(C(C)(C)C)ccc12 (stereo not drawn) [Compound 56, 3-(5-(1-(6-(tert-butyl)-3-methyl-1H-indole-2-carbonyl)piperidin-4-yl)-1-oxoinsoindolin-2-yl)piperidine-2,6-dione]	–	31.3	–
O=C1CCC(N2Cc3cc(C4CC5CCC(C4)N5C(=O)c4cc5ccc(Cl)cc5[nH]4)ccc3C2=O)C(=O)N1 (stereo not drawn) [Compound 57, 3-(5-(8-(6-chloro-1H-indole-2-carbonyl)-8-azabicyclo[3.2.1]octan-3-yl)-1-oxoinsoindolin-2-yl)piperidine-2,6-dione]	–	64.5	–
CC1CC(c2ccc3c(c2)CN(C2CCC(=O)NC2=O)C3=O)CCN1C(=O)c1cc2ccc(Cl)cc2[nH]1 (stereo not drawn) [Compound 59, 3-(5-(1-(6-chloro-1H-indole-2-carbonyl)-2-methylpiperidin-4-yl)-1-oxoinsoindolin-2-yl)piperidine-2,6-dione]	–	25.4	–
Cc1c(C(=O)N2CCC(c3ccc4c(c3)CN(C3CCC(=O)NC3=O)C4=O)CC2)[nH]c2cc(N)ccc12 (stereo not drawn) [Compound 61, 3-(5-(1-(6-amino-3-methyl-1H-indole-2-carbonyl)piperidin-4-yl)-1-oxoinsoindolin-2-yl)piperidine-2,6-dione]	–	35	–
Cc1c(C(=O)N2CCC(N3CCC(c4ccc5c(c4)CN(C4CCC(=O)NC4=O)C5=O)CC3)CC2)[nH]c2cc(Cl)ccc12 (stereo not drawn) [Compound 62, 3-(5-(1-(6-chloro-3-methyl-1H-indole-2-carbonyl)-[1,4′-bipiperidin]-4-yl)-1-oxoinsoindolin-2-yl)piperidine-2,6-dione]	–	23.8	–
Cc1c(C(=O)N2CC(N3CCC(c4ccc5c(c4)CN(C4CCC(=O)NC4=O)C5=O)CC3)C2)[nH]c2cc(Cl)ccc12 (stereo not drawn) [Compound 63, 3-(5-(1-(1-(6-chloro-3-methyl-1H-indole-2-carbonyl)azetidin-3-yl)piperidin-4-yl)-1-oxoinsoindolin-2-yl)piperidine-2,6-dione]	–	30.7	excellent IKZF2 degradation activity
Cc1c(C(=O)N2CC=C(c3ccc4c(c3)CN(C3CCC(=O)NC3=O)C4=O)C2)[nH]c2cc(Cl)ccc12 (stereo not drawn) [Compound 65, 3-(5-(1-(6-chloro-3-methyl-1H-indole-2-carbonyl)-2,5-dihydro-1H-pyrrol-3-yl)-1-oxoinsoindolin-2-yl)piperidine-2,6-dione]	–	109	–
Cc1c(C(=O)N2CCC(n3cc(-c4ccc5c(c4)CN(C4CCC(=O)NC4=O)C5=O)nn3)CC2)[nH]c2cc(Cl)ccc12 (stereo not drawn) [Compound 66, 3-(5-(1-(1-(6-chloro-3-methyl-1H-indole-2-carbonyl)piperidin-4-yl)-1H-1,2,3-triazol-4-yl)-1-oxoinsoindolin-2-yl)piperidine-2,6-dione]	–	87.8	–
